Like-named read-outs stand apart in the source and are kept apart here.
Tests used:
[1] = Hepatic impairment study: atogepant plasma protein binding; format: in vitro ADME, human; settings: human, plasma, oral, 60 mg, 2 hr post dose, read-out: plasma protein binding, percent bound (converted)
Experimental: (§1) Protein binding blood samples were collected from all participants starting on Day 1 at 0 hour (predose) and at 2 hours post dose. The pre-dose samples collected prior to dosing for each participant were externally spiked with known quantities of atogepant. Percent bound atogepant was determined in the 2-hour sample using direct measurement of the atogepant concentrations in the blood sample.

[2] = test system: plasma protein; experiment: as above; format: in vitro ADME, human; settings: for fraction unbound: human, 0 hr (predose, spiked sample), read-out: plasma protein binding, percent bound (converted); for plasma protein binding, percent bound: 2 hr post dose
Experimental: as §1

[3] = Excretion after single oral dose of 14C-atogepant; format: in vivo, human; settings: single oral dose of 50 mg 14C-atogepant, healthy male subjects
Experimental: The parent compound (atogepant) and a glucuronide conjugate metabolite (M23) were the most prevalent circulating components in human plasma. […] Following a single oral dose of 50 mg ^14C-atogepant to healthy male subjects, 42% and 5% of the dose was recovered as unchanged atogepant in feces and urine, respectively.

[4] = molecular target: P-gp (Homo sapiens, UniProt P08183); experiment: Transporter substrate; format: in vitro ADME
[5] = Hepatic impairment study: atogepant plasma PK; format: in vivo, human; settings: for AUC(0-t) / AUC(0-inf) / Cmax / Tmax / half-life / Vd/F: human, plasma, 60 mg; for Vd/F: read-out: Vz/F
Experimental: A multicenter, non-randomized, open-label, parallel-group, single-dose study was carried out to evaluate the PK, safety, and tolerability profiles of atogepant in participants with impaired hepatic function and matched healthy participants with normal hepatic function after a single 60-mg oral dose of atogepant. The primary outcome measures were PK parameters of atogepant derived from plasma concentrations. Safety measures were AEs, clinical laboratory determinations, vital sign parameters, electrocardiographic results, and physical examination findings. […] PK blood samples were collected for up to 72 hours after dose administration. The total duration of study participation for each participant was 5 days (Day −1 to Day 4), excluding the screening visit. […] Participants with moderate hepatic impairment were enrolled after 4 participants with mild hepatic impairment completed the study; participants with severe hepatic impairment were enrolled after 4 participants with moderate hepatic impairment completed the study. Participants with normal hepatic function were recruited after all patients with hepatic impairment were enrolled in the study. The safety and tolerability of atogepant was established in each group before the subsequent group was enrolled. Participants were enrolled into four groups: Group I (Mild Hepatic Impairment); Group II (Moderate Hepatic Impairment); Group III (Severe Hepatic Impairment); and Group IV (Normal Hepatic Impairment). Participants with normal hepatic function were recruited after the participants with hepatic impairment were enrolled in the study so that participants could be matched as closely as possible by age range, weight range, and gender among groups. Participants were matched specifically according to rage range, not exceeding 5 years between the means of the normal group and the 3 impaired hepatic function groups combined; weight range, which deviated <20% between the means of the normal group and the 3 impaired hepatic function groups combined; and gender, as much as possible to match the ratio of the normal group to the 3 impaired hepatic function groups combined. Participants received a single, oral, 60 mg tablet of atogepant. Each participant received only one dose of the study intervention. Participants received the atogepant tablet with 240 mL of water at the study center under fasted conditions. Following dose administration, participants continued their fast and remained seated upright and awake for 4 hours. Sampling for atogepant plasma concentrations was done starting on Day 1 at 0 hour (predose) and at 0.5, 1, 1.5, 2, 3, 4, 6, 8, 12, 16, 24, 36, 48, and 72 hours post dose.

[6] = molecular target: BCRP (Homo sapiens, UniProt Q9UNQ0); experiment: Transporter inhibition; format: in vitro ADME; settings: clinically relevant concentrations
[7] = Clinical pharmacokinetics of atogepant after oral administration (summary); format: in vivo, human
[8] = po, mild hepatic impairment, single 60 mg oral dose
[9] = po, moderate hepatic impairment, single 60 mg oral dose
[10] = po, normal hepatic function, single 60 mg oral dose
[11] = po, severe hepatic impairment, single 60 mg oral dose
[12] = mild hepatic impairment vs normal hepatic function
[13] = mild hepatic impairment, single 60 mg oral dose
[14] = moderate hepatic impairment vs normal hepatic function
[15] = moderate hepatic impairment, single 60 mg oral dose
[16] = normal hepatic function, single 60 mg oral dose
[17] = severe hepatic impairment vs normal hepatic function
[18] = severe hepatic impairment, single 60 mg oral dose

Sequence of BCRP (Q9UNQ0 whole entry): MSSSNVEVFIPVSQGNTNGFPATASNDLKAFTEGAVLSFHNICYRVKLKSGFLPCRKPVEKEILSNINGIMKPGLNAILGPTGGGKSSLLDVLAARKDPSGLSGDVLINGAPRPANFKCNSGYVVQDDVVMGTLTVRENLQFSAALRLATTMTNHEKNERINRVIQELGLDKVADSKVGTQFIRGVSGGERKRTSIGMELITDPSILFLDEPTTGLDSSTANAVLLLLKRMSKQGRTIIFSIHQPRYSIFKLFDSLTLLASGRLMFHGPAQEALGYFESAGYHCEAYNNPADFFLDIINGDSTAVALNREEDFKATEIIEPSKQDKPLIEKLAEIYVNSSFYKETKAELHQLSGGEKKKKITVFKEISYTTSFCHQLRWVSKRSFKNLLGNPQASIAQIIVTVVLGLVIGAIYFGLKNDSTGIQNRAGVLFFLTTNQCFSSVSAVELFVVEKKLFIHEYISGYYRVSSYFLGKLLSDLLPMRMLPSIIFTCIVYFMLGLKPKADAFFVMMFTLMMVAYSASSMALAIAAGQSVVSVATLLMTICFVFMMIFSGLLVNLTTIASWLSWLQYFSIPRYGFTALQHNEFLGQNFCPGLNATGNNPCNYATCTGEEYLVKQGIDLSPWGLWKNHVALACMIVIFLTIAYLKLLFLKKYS
Sequence of P-gp (P08183 whole entry): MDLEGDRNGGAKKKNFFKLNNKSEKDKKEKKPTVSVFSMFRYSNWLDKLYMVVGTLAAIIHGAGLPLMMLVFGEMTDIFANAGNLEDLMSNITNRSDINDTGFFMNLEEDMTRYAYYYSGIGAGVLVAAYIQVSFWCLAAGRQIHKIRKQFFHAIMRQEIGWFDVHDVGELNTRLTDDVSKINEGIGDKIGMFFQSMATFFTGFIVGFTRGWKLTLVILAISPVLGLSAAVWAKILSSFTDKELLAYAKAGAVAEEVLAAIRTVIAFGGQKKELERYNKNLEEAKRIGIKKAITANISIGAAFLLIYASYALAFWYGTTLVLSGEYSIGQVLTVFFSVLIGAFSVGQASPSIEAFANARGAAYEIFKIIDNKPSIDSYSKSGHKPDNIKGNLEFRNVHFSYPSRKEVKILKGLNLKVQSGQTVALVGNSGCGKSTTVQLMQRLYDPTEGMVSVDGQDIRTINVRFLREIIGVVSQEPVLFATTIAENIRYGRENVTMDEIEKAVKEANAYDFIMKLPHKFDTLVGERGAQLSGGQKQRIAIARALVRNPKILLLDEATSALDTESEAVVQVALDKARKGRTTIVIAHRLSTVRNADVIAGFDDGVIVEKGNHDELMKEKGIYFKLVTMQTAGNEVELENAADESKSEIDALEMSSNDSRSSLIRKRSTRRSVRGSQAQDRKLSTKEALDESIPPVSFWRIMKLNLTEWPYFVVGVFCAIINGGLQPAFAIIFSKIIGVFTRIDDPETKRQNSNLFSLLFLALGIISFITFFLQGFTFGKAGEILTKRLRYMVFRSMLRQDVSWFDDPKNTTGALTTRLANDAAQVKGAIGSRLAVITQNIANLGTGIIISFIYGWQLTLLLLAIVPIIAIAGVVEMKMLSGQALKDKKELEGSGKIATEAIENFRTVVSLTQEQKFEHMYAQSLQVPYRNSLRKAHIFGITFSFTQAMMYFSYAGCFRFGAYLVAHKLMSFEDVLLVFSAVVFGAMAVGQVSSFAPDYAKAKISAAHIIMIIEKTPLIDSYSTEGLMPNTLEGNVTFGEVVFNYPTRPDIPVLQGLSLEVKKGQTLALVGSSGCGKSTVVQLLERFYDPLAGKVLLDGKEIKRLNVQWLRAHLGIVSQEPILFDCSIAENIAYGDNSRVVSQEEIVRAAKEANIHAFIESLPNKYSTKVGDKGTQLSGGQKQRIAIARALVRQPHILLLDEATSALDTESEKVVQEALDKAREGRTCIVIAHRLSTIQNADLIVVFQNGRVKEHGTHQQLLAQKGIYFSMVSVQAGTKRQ

C[C@@H]1[C@H](c2c(F)ccc(F)c2F)C[C@H](NC(=O)c2cnc3c(c2)C[C@@]2(C3)C(=O)Nc3ncccc32)C(=O)N1CC(F)(F)F [atogepant, (3′S)-N-[(3S,5S,6R)-6-methyl-2-oxo-1-(2,2,2-trifluoroethyl)-5-(2,3,6-trifluorophenyl)piperidin-3-yl]-2′-oxo-1′,2′,5,7-tetrahydrospiro[cyclopenta[b]pyridine-6,3′-pyrrolo[2,3-b]pyridine]-3-carboxamide]
fraction unbound at 2 h ([1]; mild-impaired): 0.026 | fraction unbound at 2 h ([1]; moderate-impaired): 0.029 | fraction unbound at 2 h ([1]; normal hepatic function): 0.018 | fraction unbound at 2 h ([1]; severe-impaired): 0.047 | fraction unbound ([2]; mild-impaired): 0.0297 | fraction unbound ([2]; moderate-impaired): 0.034 | fraction unbound ([2]; normal hepatic function): 0.0211 | fraction unbound ([2]; severe-impaired): 0.0552 | plasma protein binding, percent bound ([2]; mild-impaired): 97.36 ± 0.70% | plasma protein binding, percent bound ([2]; moderate-impaired): 97.05 ± 0.62% | plasma protein binding, percent bound ([2]; normal hepatic function): 98.21 ± 0.46% | plasma protein binding, percent bound ([2]; severe-impaired): 95.34 ± 0.85% | dose recovered as unchanged atogepant in feces [3]: 42% | dose recovered as unchanged atogepant in urine [3]: 5% | substrate of P-gp [4]: substrate | AUC(0-t) ([5]; oral, mild hepatic impairment, read-out: AUC0-t Geometric Least Squares Mean, Test): 3250 ng·h/mL | AUC(0-inf) ([5]; oral, mild hepatic impairment, read-out: AUC0-∞ Geometric Least Squares Mean, Test): 3270 ng·h/mL | Cmax ([5]; oral, mild hepatic impairment, read-out: Cmax Geometric Least Squares Mean, Test): 587 ng/mL | AUC(0-t) ([5]; oral, moderate hepatic impairment, read-out: AUC0-t Geometric Least Squares Mean, Test): 2980 ng·h/mL | AUC(0-inf) ([5]; oral, moderate hepatic impairment, read-out: AUC0-∞ Geometric Least Squares Mean, Test): 3030 ng·h/mL | Cmax ([5]; oral, moderate hepatic impairment, read-out: Cmax Geometric Least Squares Mean, Test): 475 ng/mL | AUC(0-t) ([5]; oral, normal hepatic function, read-out: AUC0-t Geometric Least Squares Mean, Reference): 2610 ng·h/mL | AUC(0-inf) ([5]; oral, normal hepatic function, read-out: AUC0-∞ Geometric Least Squares Mean, Reference): 2630 ng·h/mL | Cmax ([5]; oral, normal hepatic function, read-out: Cmax Geometric Least Squares Mean, Reference): 539 ng/mL | AUC(0-t) ([5]; oral, severe hepatic impairment, read-out: AUC0-t Geometric Least Squares Mean, Test): 3600 ng·h/mL | AUC(0-inf) ([5]; oral, severe hepatic impairment, read-out: AUC0-∞ Geometric Least Squares Mean, Test): 3630 ng·h/mL | Cmax ([5]; oral, severe hepatic impairment, read-out: Cmax Geometric Least Squares Mean, Test): 515 ng/mL | Tmax ([5]; po, mild hepatic impairment vs normal hepatic function, read-out: difference in median Tmax): 0 h | half-life [5, 8]: 8.7 ± 4.06 h | AUC(0-t) ([5]; po, mild hepatic impairment, single 60 mg oral dose, read-out: AUC0-t): 3470 ± 1420 ng·h/mL | AUC(0-inf) ([5]; po, mild hepatic impairment, single 60 mg oral dose, read-out: AUC0-∞): 3500 ± 1430 ng·h/mL | Cmax ([5]; po, mild hepatic impairment, single 60 mg oral dose, read-out: Cmax): 666 ± 372 ng/mL | Tmax ([5]; po, mild hepatic impairment, single 60 mg oral dose, read-out: Tmax, median (range)): 1.76 h | Vd/F [5, 8]: 249 ± 161 L | Tmax ([5]; po, moderate hepatic impairment vs normal hepatic function, read-out: difference in median Tmax): 0.25 h | half-life [5, 9]: 11.9 ± 7.6 h | AUC(0-t) ([5]; po, moderate hepatic impairment, single 60 mg oral dose, read-out: AUC0-t): 3270 ± 1690 ng·h/mL | AUC(0-inf) ([5]; po, moderate hepatic impairment, single 60 mg oral dose, read-out: AUC0-∞): 3310 ± 1680 ng·h/mL | Cmax ([5]; po, moderate hepatic impairment, single 60 mg oral dose, read-out: Cmax): 529 ± 227 ng/mL | Tmax ([5]; po, moderate hepatic impairment, single 60 mg oral dose, read-out: Tmax, median (range)): 1.5 h | Vd/F [5, 9]: 404 ± 406 L | half-life [5, 10]: 9.4 ± 3.24 h | AUC(0-t) ([5]; po, normal hepatic function, single 60 mg oral dose, read-out: AUC0-t): 2760 ± 919 ng·h/mL | AUC(0-inf) ([5]; po, normal hepatic function, single 60 mg oral dose, read-out: AUC0-∞): 2780 ± 924 ng·h/mL | Cmax ([5]; po, normal hepatic function, single 60 mg oral dose, read-out: Cmax): 589 ± 248 ng/mL | Tmax ([5]; po, normal hepatic function, single 60 mg oral dose, read-out: Tmax, median (range)): 1.75 h | Vd/F [5, 10]: 301 ± 77 L | Tmax ([5]; po, severe hepatic impairment vs normal hepatic function, read-out: difference in median Tmax): 0.75 h | half-life [5, 11]: 7.54 ± 2.95 h | AUC(0-t) ([5]; po, severe hepatic impairment, single 60 mg oral dose, read-out: AUC0-t): 3800 ± 1400 ng·h/mL | AUC(0-inf) ([5]; po, severe hepatic impairment, single 60 mg oral dose, read-out: AUC0-∞): 3840 ± 1440 ng·h/mL | Cmax ([5]; po, severe hepatic impairment, single 60 mg oral dose, read-out: Cmax): 525 ± 197 ng/mL | Tmax ([5]; po, severe hepatic impairment, single 60 mg oral dose, read-out: Tmax, median (range)): 1 h | Vd/F [5, 11]: 177 ± 47.5 L | higher AUC (total atogepant exposure increase) ([5]; mild hepatic impairment (Child-Pugh Class A) vs normal hepatic function): 24% | AUC0-t Ratio of Geometric Means Test/Reference [5, 12]: 124.40 | AUC0-∞ Ratio of Geometric Means Test/Reference [5, 12]: 124.31 | Cmax Ratio of Geometric Means Test/Reference [5, 12]: 108.97 | change in maximum plasma concentration [5, 12]: +9% | higher Cmax [5, 12]: 9% | AUC % [5, 13]: 0.73 ± 0.42% | CL/F [5, 13]: 19.42 ± 6.60 L/h | λz [5, 13]: 0.0906 ± 0.0300 h⁻¹ | change in the PK of atogepant ([5]; mild, moderate, or severe hepatic impairment): no clinically relevant change | higher AUC (total atogepant exposure increase) ([5]; moderate hepatic impairment (Child-Pugh Class B) vs normal hepatic function): 15% | AUC0-t Ratio of Geometric Means Test/Reference [5, 14]: 113.96 | AUC0-∞ Ratio of Geometric Means Test/Reference [5, 14]: 115.00 | Cmax Ratio of Geometric Means Test/Reference [5, 14]: 88.17 | change in maximum plasma concentration [5, 14]: −12% | lower Cmax [5, 14]: 12% | AUC % [5, 15]: 1.70 ± 1.44% | CL/F [5, 15]: 21.33 ± 8.06 L/h | λz [5, 15]: 0.0781 ± 0.0431 h⁻¹ | AUC % [5, 16]: 0.81 ± 0.23% | CL/F [5, 16]: 24.20 ± 9.42 L/h | λz [5, 16]: 0.0819 ± 0.0289 h⁻¹ | increase in AUC (total atogepant exposure increase) ([5]; severe hepatic impairment (Child-Pugh Class C) vs normal hepatic function): 38% | AUC0-t Ratio of Geometric Means Test/Reference [5, 17]: 137.88 | AUC0-∞ Ratio of Geometric Means Test/Reference [5, 17]: 137.97 | Cmax Ratio of Geometric Means Test/Reference [5, 17]: 95.71 | change in maximum plasma concentration [5, 17]: −4% | decrease in Cmax [5, 17]: 4% | AUC % [5, 18]: 0.87 ± 0.65% | CL/F [5, 18]: 17.33 ± 5.40 L/h | λz [5, 18]: 0.0998 ± 0.0242 h⁻¹ | inhibition of BCRP [6]: not an inhibitor | mean apparent oral clearance (CL/F) ([7]; human, in vivo, po): approximately 19 L/hr | half-life ([7]; human, plasma, oral, read-out: elimination half-life (converted)): ~11 h | Vd/F ([7]; human, plasma, after oral administration, read-out: mean apparent volume distribution (Vz/F)): ~282 L | accumulation ([7]; once daily dosing): no accumulation | dose proportionality ([7]; once daily dosing): dose-proportional pharmacokinetics up to 170 mg

From patent US12350259B2, “Methods of treating migraine” (Allergan Pharmaceuticals International Limited, priority 2021, dated 2025)
